Measured values published in ChEMBL document CHEMBL1201862, “PubChem BioAssay data set” (2004).
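Cultured in 96-well plates, cells were exposed to test compound for 48 hours across five concentrations. GI50: concentration for 50% inhibition of growth.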 The source made the active and inactive calls. Rule as the data show it: active = GI50 up to about 1.1 µM and inactive = higher.

Columns and labels:
Assay in all cases: NCI anticancer screen, dose series, 48 h
786-0 = test system: 786-0
A498 = test system: A498
A549 = test system: A549
BT-549 = test system: BT-549
COLO 205 = test system: COLO 205
EKVX = test system: EKVX
HCT-116 = test system: HCT-116
K562 = test system: K562
LOX IMVI = test system: LOX IMVI
MDA-N = test system: MDA-N
MOLT-4 = test system: MOLT-4
NCI-H23 = test system: NCI-H23
OVCAR-5 = test system: OVCAR-5
OVCAR-8 = test system: OVCAR-8
RPMI-8226 = test system: RPMI-8226
SF-295 = test system: SF-295
SK-OV-3 = test system: SK-OV-3
SN12C = test system: SN12C
SNB-75 = test system: SNB-75
UACC-257 = test system: UACC-257

Row | Compound | GI50 (786-0) | GI50 (A498) | GI50 (A549) | GI50 (BT-549) | GI50 (COLO 205) | GI50 (EKVX) | GI50 (HCT-116) | GI50 (K562) | GI50 (LOX IMVI) | GI50 (MDA-N) | GI50 (MOLT-4) | GI50 (NCI-H23) | GI50 (OVCAR-5) | GI50 (OVCAR-8) | GI50 (RPMI-8226) | GI50 (SF-295) | GI50 (SK-OV-3) | GI50 (SN12C) | GI50 (SNB-75) | GI50 (UACC-257)
1 | COC(=O)CCCC(=O)NC1=C(NCc2ccccc2)C(=O)c2ccccc2C1=O | 63.8 µM (inactive) | > 100 µM (inactive) | 56.5 µM (inactive) | 28.6 µM (inactive) | 23.8 µM (inactive) | 51.4 µM (inactive) | 32.1 µM (inactive) | 45.6 µM (inactive) | 46.2 µM (inactive) | 41.4 µM (inactive) | 34 µM (inactive) | 53.2 µM (inactive) | > 100 µM (inactive) | 68.4 µM (inactive) | 49.5 µM (inactive) | > 10 µM (inactive) | 45.5 µM (inactive) | 52.5 µM (inactive) | > 100 µM (inactive) | 29.7 µM (inactive)
2 | O=C(O)c1ccc(C(=O)Nc2cccc3ccccc23)c(C(=O)O)c1 | > 100 µM (inactive) | > 100 µM (inactive) | > 100 µM (inactive) | > 100 µM (inactive) | > 100 µM (inactive) | > 100 µM (inactive) | > 100 µM (inactive) | > 100 µM (inactive) | > 100 µM (inactive) | > 100 µM (inactive) | > 100 µM (inactive) | > 100 µM (inactive) | > 100 µM (inactive) | > 100 µM (inactive) | > 100 µM (inactive) | > 100 µM (inactive) | > 100 µM (inactive) | > 100 µM (inactive) | > 100 µM (inactive) | > 100 µM (inactive)
3 | NNC(=O)CSc1nnc(CCCCCCCCc2nnc(SCC(=O)NN)o2)o1 | > 100 µM (inactive) | > 100 µM (inactive) | > 100 µM (inactive) | > 100 µM (inactive) | > 100 µM (inactive) | > 100 µM (inactive) | > 100 µM (inactive) | > 100 µM (inactive) | > 100 µM (inactive) | > 100 µM (inactive) | > 100 µM (inactive) | > 100 µM (inactive) | > 100 µM (inactive) | > 100 µM (inactive) | > 100 µM (inactive) | > 100 µM (inactive) | > 100 µM (inactive) | > 100 µM (inactive) | > 100 µM (inactive) | > 100 µM (inactive)
4 | O=CC(=C(I)I)c1ccccc1 | 2.14 µM (inactive) | 21.6 µM (inactive) | 20.2 µM (inactive) | 4.38 µM (inactive) | 2.51 µM (inactive) | 11.5 µM (inactive) | 0.855 µM (active) | 0.264 µM (active) | 1.66 µM (inactive) | 2.04 µM (inactive) | 0.289 µM (active) | 2.05 µM (inactive) | 6.75 µM (inactive) | 2.46 µM (inactive) | 0.977 µM (active) | 7.78 µM (inactive) | 15.9 µM (inactive) | 2.28 µM (inactive) | 2.64 µM (inactive) | 2.9 µM (inactive)
5 | C/C(=N\Nc1nc2ccccc2[nH]1)c1cc2ccccc2cn1 | 0.048 µM (active) | 0.0993 µM (active) | 0.0775 µM (active) | 0.592 µM (active) | < 0.01 µM (active) | < 0.0183 µM (active) | 0.0158 µM (active) | 0.0159 µM (active) | 0.051 µM (active) | 0.171 µM (active) | 0.0117 µM (active) | 0.0345 µM (active) | 0.288 µM (active) | < 0.018 µM (active) | < 0.01 µM (active) | 0.166 µM (active) | 0.0465 µM (active) | < 0.01 µM (active) | 0.317 µM (active) | 0.0243 µM (active)
6 | CCN(CC)CCn1ncc2c3c(=O)c4cccnc4n(CCN(CC)CC)c3ccc21 | 5.97 µM (inactive) | > 10 µM (inactive) | > 10 µM (inactive) | > 10 µM (inactive) | 2.32 µM (inactive) | > 10 µM (inactive) | 3.54 µM (inactive) | > 10 µM (inactive) | 5.41 µM (inactive) | > 10 µM (inactive) | 4.39 µM (inactive) | > 10 µM (inactive) | 9.12 µM (inactive) | 7.93 µM (inactive) | > 10 µM (inactive) | 7.45 µM (inactive) | > 10 µM (inactive) | 8.87 µM (inactive) | 9.66 µM (inactive) | > 10 µM (inactive)
